Experimental data published in the supplement of paper PMC11061612.

Columns and labels:
[1] = test system: Raji (Burkitt's Lymphoma); assay: Bliss excess, mean over the matrix (fraction); higher = more synergy
Procedure, shortened: (§1)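 Cell lines in DMEM/F12 or RPMI with 10% FBS were plated in 1536-well plates, held 24 hours at 37°C, 5% CO2, then given two-drug dose matrices for 72 hours (DMSO typically 0.2%). Viability was read by CellTiter-Glo 2.0 luminescence and scaled as inhibition from 0 (vehicle wells) to 1 (blank wells). Combination Emax is the second-highest inhibition in the matrix; Bliss excess is observed combination effect minus expected EA + EB − EA·EB, EA and EB being single-agent effects.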

NB1 (Neuroblastoma) = assay: as above
Procedure, shortened: as §1

[2] = test system: IA-LM (Non-Small Cell Lung Carcinoma); assay: as above
Procedure, shortened: as §1

[3] = test system: SNU-423 (Hepatocellular Carcinoma); assay: as above
Procedure, shortened: as §1

IST-MEL1 (Melanoma) = assay: as above
Procedure, shortened: as §1

GAK (Melanoma) = assay: as above
Procedure, shortened: as §1

[4] = test system: MM1S (Plasma Cell Myeloma); assay: as above
Procedure, shortened: as §1

UACC-257 (Melanoma) = assay: as above
Procedure, shortened: as §1

[5] = test system: COR-L88 (Small Cell Lung Carcinoma); assay: as above
Procedure, shortened: as §1

[6] = test system: SK-CO-1 (Colorectal Carcinoma); assay: as above
Procedure, shortened: as §1

[7] = test system: MS-1 (Small Cell Lung Carcinoma); assay: as above
Procedure, shortened: as §1

[8] = test system: NCI-H1341 (Small Cell Lung Carcinoma); assay: as above
Procedure, shortened: as §1

[9] = test system: HT-1080 (Other Solid Carcinomas); assay: as above
Procedure, shortened: as §1

[10] = test system: KP-4 (Pancreatic Carcinoma); assay: as above
Procedure, shortened: as §1

[11] = test system: SNU-407 (Colorectal Carcinoma); assay: as above
Procedure, shortened: as §1

[12] = test system: MOLT-13 (T-Lymphoblastic Leukemia); assay: as above
Procedure, shortened: as §1

[13] = test system: BxPC-3 (Pancreatic Carcinoma); assay: combination Emax (second highest fraction inhibited in the dose matrix, 72 h); higher = more inhibition; extreme values may be limits of the assay
Procedure, shortened: as §1

[14] = test system: NCI-H1876 (Small Cell Lung Carcinoma); assay: as above
Procedure, shortened: as §1

[15] = test system: SNU-407 (Colorectal Carcinoma); assay: as above
Procedure, shortened: as §1

[16] = test system: NMC-G1 (Low Grade Glioma); assay: Bliss excess, mean over the matrix (fraction); higher = more synergy
Procedure, shortened: as §1
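Wherever Bliss excess, mean over the matrix is given: after 72 h of two-drug dosing.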

Structure (SMILES) | Bliss excess [1] | Bliss excess (NB1 (Neuroblastoma)) | Bliss excess [2] | Bliss excess [3] | Bliss excess (IST-MEL1 (Melanoma)) | Bliss excess (GAK (Melanoma)) | Bliss excess [4] | Bliss excess (UACC-257 (Melanoma)) | Bliss excess [5] | Bliss excess [6] | Bliss excess [7] | Bliss excess [8] | Bliss excess [9] | Bliss excess [10] | Bliss excess [11] | Bliss excess [12] | combination Emax [13] | combination Emax [14] | combination Emax [15] | Bliss excess [16]
CS(=O)(=O)CCNCc1ccc(-c2ccc3ncnc(Nc4ccc(OCc5cccc(F)c5)c(Cl)c4)c3c2)o1 [Lapatinib] + C[C@@H](Oc1cc(-c2cnn(C3CCNCC3)c2)cnc1N)c1c(Cl)ccc(F)c1Cl [Crizotinib] (first compound max 10 µM, 7x7, partner max 10 µM) | 0.0203 | 0.0158 | -0.0133 | -0.074 | -0.0095 | -0.0066 | 0.0395 | -0.0442 | -0.0234 | -0.0721 | -0.0784 | 0.0876 | -0.012 | -0.0775 | -0.0774 | 0.0036 | 0.946 | 0.934 | 0.966 | –
NC1(C(=O)N[C@@H](CCO)c2ccc(Cl)cc2)CCN(c2ncnc3[nH]ccc23)CC1 [Capivasertib] + CC(=O)c1c(C)c2cnc(Nc3ccc(N4CCNCC4)cn3)nc2n(C2CCCC2)c1=O [Palbociclib] (first compound max 10 µM, 7x7, partner max 10 µM) | 0.0521 | -0.0201 | -0.0789 | -0.0019 | -0.0106 | 0.0095 | -0.0128 | -0.0046 | -0.0113 | -0.0319 | -0.0055 | -0.0345 | -0.0779 | 0.029 | -0.0267 | 0.0311 | 0.23 | 0.253 | 0.678 | –
Cc1c2c(nn1C)CSCc1cc(n(C)n1)CSc1cc(c3ccccc3c1)OCCCc1c(C(=O)O)n(C)c3c-2c(Cl)ccc13 [AZD5991] + CCN(CCO)CCCOc1ccc2c(Nc3cc(CC(=O)Nc4cccc(F)c4)[nH]n3)ncnc2c1 [AZD2811] (first compound max 1 µM, 7x7, partner max 1 µM) | 0.0766 | 0.0095 | 0.0059 | -0.0322 | 0.0931 | – | 0.134 | – | 0.0453 | -0.0337 | 0.0123 | 0.0493 | 0.0096 | 0.0247 | -0.034 | 0.0028 | 0.269 | 0.998 | 0.694 | 0.0152
NC1(C(=O)N[C@@H](CCO)c2ccc(Cl)cc2)CCN(c2ncnc3[nH]ccc23)CC1 [Capivasertib] + CCN(CCO)CCCOc1ccc2c(Nc3cc(CC(=O)Nc4cccc(F)c4)[nH]n3)ncnc2c1 [AZD2811] (first compound max 10 µM, 7x7, partner max 1 µM) | 0.0021 | -0.0284 | -0.0113 | -0.0676 | -0.0347 | -0.0181 | 0.0257 | 0.0028 | -0.0738 | -0.0431 | 0.0059 | -0.0036 | -0.0498 | -0.0379 | -0.0833 | -0.0569 | 0.241 | 0.941 | 0.714 | –
Cn1cnc2c(F)c(Nc3ccc(Br)cc3Cl)c(C(=O)NOCCO)cc21 [Selumetinib] + CC(C)n1c(=O)n(C)c2cnc3cc(F)c(-c4ccc(OCCCN5CCCCC5)nc4)cc3c21 [AZD1390] (first compound max 10 µM, 7x7, partner max 0.3 µM) | -0.0189 | -0.0646 | -0.0102 | -0.0026 | -0.013 | -0.0415 | 0.0258 | -0.0099 | -0.0086 | -0.0168 | -0.02 | -0.0071 | -0.0697 | -0.0571 | -0.0235 | 0.0447 | 0.4 | 0.272 | 0.507 | –
COc1cc2ncnc(Nc3ccc(F)c(Cl)c3)c2cc1OCCCN1CCOCC1 [Gefitinib] + CC(C)n1c(=O)n(C)c2cnc3cc(F)c(-c4ccc(OCCCN5CCCCC5)nc4)cc3c21 [AZD1390] (first compound max 10 µM, 7x7, partner max 0.3 µM) | -0.0343 | -0.0419 | -0.111 | -0.0902 | -0.0684 | -0.0656 | -0.0356 | -0.055 | -0.0652 | -0.0056 | -0.0252 | -0.0399 | -0.0548 | -0.073 | -0.0783 | -0.0246 | 0.285 | 0.178 | 0.168 | –
COc1nnc2ccc(N3CCC(c4ccc(OCCN5CCN(C)C(=O)[C@H]5C)cc4)CC3)nn12 [AZD5153] + Cc1c2c(nn1C)CSCc1cc(n(C)n1)CSc1cc(c3ccccc3c1)OCCCc1c(C(=O)O)n(C)c3c-2c(Cl)ccc13 [AZD5991] (first compound max 1 µM, 7x7, partner max 1 µM) | -0.0119 | -0.0211 | -0.0797 | -0.0227 | -0.0116 | -0.0183 | 0.15 | -0.019 | 0.0848 | -0.0377 | -0.0151 | 0.0366 | -0.0668 | -0.0231 | -0.0996 | -0.0503 | 0.463 | 0.949 | 0.977 | –
NC1(C(=O)N[C@@H](CCO)c2ccc(Cl)cc2)CCN(c2ncnc3[nH]ccc23)CC1 [Capivasertib] + COc1nnc2ccc(N3CCC(c4ccc(OCCN5CCN(C)C(=O)[C@H]5C)cc4)CC3)nn12 [AZD5153] (first compound max 10 µM, 7x7, partner max 1 µM) | 0.0469 | 0.0085 | -0.141 | 0.0056 | -0.0143 | -0.0323 | 0.0564 | -0.0072 | 0.0516 | -0.0209 | -0.0737 | 0.0383 | -0.0558 | -0.0109 | -0.0269 | -0.0111 | 0.399 | 0.579 | 0.882 | –
COc1nnc2ccc(N3CCC(c4ccc(OCCN5CCN(C)C(=O)[C@H]5C)cc4)CC3)nn12 [AZD5153] + CC1(C)CCC(CN2CCN(c3ccc(C(=O)NS(=O)(=O)c4ccc(NCC5CCOCC5)c([N+](=O)[O-])c4)c(Oc4cnc5[nH]ccc5c4)c3)CC2)=C(c2ccc(Cl)cc2)C1 [Venetoclax] (first compound max 1 µM, 7x7, partner max 1 µM) | -0.0247 | -0.0863 | -0.0639 | -0.0223 | -0.0812 | -0.0172 | -0.0394 | -0.0555 | -0.0179 | -0.0312 | 0.0094 | -0.03 | -0.0216 | -0.0465 | -0.0217 | 0.11 | 0.473 | 0.3 | 0.902 | –
COc1nnc2ccc(N3CCC(c4ccc(OCCN5CCN(C)C(=O)[C@H]5C)cc4)CC3)nn12 [AZD5153] + C[C@@H]1COCCN1C2=NC(=NC(=C2)C3(CC3)[S@](=N)(=O)C)C4=C5C=CNC5=NC=C4 [AZD6738] (first compound max 1 µM, 7x7, partner max 10 µM) | -0.0198 | 0.0095 | -0.0353 | -0.0023 | 0.0206 | -0.0005 | 0.0719 | 0.0581 | -0.0201 | -0.0179 | -0.0701 | 0.0243 | -0.0255 | -0.0217 | 0.003 | 0.02 | 0.602 | 0.887 | 0.958 | –
NC1(C(=O)N[C@@H](CCO)c2ccc(Cl)cc2)CCN(c2ncnc3[nH]ccc23)CC1 [Capivasertib] + Cn1cnc2c(F)c(Nc3ccc(Br)cc3Cl)c(C(=O)NOCCO)cc21 [Selumetinib] (first compound max 10 µM, 7x7, partner max 10 µM) | 0.0036 | 0.0054 | -0.113 | 0.0248 | 0.0465 | -0.0649 | 0.0712 | -0.0402 | 0.0084 | 0.0107 | -0.005 | 0.0605 | 0.0159 | 0.0084 | 0.026 | 0.0339 | 0.426 | 0.239 | 0.767 | –
COc1nnc2ccc(N3CCC(c4ccc(OCCN5CCN(C)C(=O)[C@H]5C)cc4)CC3)nn12 [AZD5153] + C=CCn1c(=O)c2cnc(Nc3ccc(N4CCN(C)CC4)cc3)nc2n1-c1cccc(C(C)(C)O)n1 [AZD1775] (first compound max 1 µM, partner max 1 µM) | -0.105 | -0.0461 | -0.0554 | -0.0459 | -0.0398 | -0.158 | -0.0412 | 0.0034 | -0.0249 | -0.0741 | -0.0687 | -0.0121 | -0.0362 | -0.0859 | -0.0278 | -0.0319 | 0.529 | 0.99 | 0.89 | –
NC1(C(=O)N[C@@H](CCO)c2ccc(Cl)cc2)CCN(c2ncnc3[nH]ccc23)CC1 [Capivasertib] + CC(C)n1c(=O)n(C)c2cnc3cc(F)c(-c4ccc(OCCCN5CCCCC5)nc4)cc3c21 [AZD1390] (first compound max 10 µM, 7x7, partner max 0.3 µM) | -0.0461 | -0.0688 | -0.0371 | -0.0583 | -0.0392 | -0.0397 | -0.0204 | -0.0358 | -0.0746 | -0.0173 | 0.0169 | -0.0818 | -0.0504 | -0.0546 | -0.0261 | -0.037 | 0.181 | 0.172 | 0.503 | –
COc1nnc2ccc(N3CCC(c4ccc(OCCN5CCN(C)C(=O)[C@H]5C)cc4)CC3)nn12 [AZD5153] + Cn1cnc2c(F)c(Nc3ccc(Br)cc3Cl)c(C(=O)NOCCO)cc21 [Selumetinib] (first compound max 1 µM, 7x7, partner max 10 µM) | -0.0445 | -0.0454 | 0.0168 | 0.0059 | 0.0304 | -0.0532 | 0.109 | 0.0284 | -0.0196 | -0.0134 | -0.0665 | -0.0282 | 0.0587 | 0.0157 | -0.0175 | 0.085 | 0.616 | 0.23 | 0.938 | –
NC1(C(=O)N[C@@H](CCO)c2ccc(Cl)cc2)CCN(c2ncnc3[nH]ccc23)CC1 [Capivasertib] + C[C@@H]1COCCN1C2=NC(=NC(=C2)C3(CC3)[S@](=N)(=O)C)C4=C5C=CNC5=NC=C4 [AZD6738] (first compound max 10 µM, 7x7, partner max 10 µM) | 0.0187 | -0.0341 | 0.008 | -0.0139 | -0.0446 | -0.0552 | 0.0201 | 0.0164 | -0.0456 | -0.0786 | -0.0465 | -0.0251 | -0.0473 | -0.0371 | -0.101 | -0.0387 | 0.429 | 0.934 | 0.82 | –
